Experimental data as given in ChEMBL document CHEMBL1153669, “Rs-100235: A high affinity 5-HT4 receptor antagonist” (Bioorg Med Chem Lett, 1995).

Key:
[1] = target: 5-hydroxytryptamine receptor 4 (Rattus norvegicus) (UniProt Q62758); experiment: Antagonist activity against 5-HT4 receptor mediated relaxation of rat carbachol contracted esophageal muscularis mucosae; assay type: functional
[2] = target: T1, 5-hydroxytryptamine receptor 1A (Mus musculus, UniProt Q64264); experiment: Compound was evaluated for binding affinity against 5-hydroxytryptamine 1A receptor using radioligand binding assay
T1 sequence (Q64264 whole entry): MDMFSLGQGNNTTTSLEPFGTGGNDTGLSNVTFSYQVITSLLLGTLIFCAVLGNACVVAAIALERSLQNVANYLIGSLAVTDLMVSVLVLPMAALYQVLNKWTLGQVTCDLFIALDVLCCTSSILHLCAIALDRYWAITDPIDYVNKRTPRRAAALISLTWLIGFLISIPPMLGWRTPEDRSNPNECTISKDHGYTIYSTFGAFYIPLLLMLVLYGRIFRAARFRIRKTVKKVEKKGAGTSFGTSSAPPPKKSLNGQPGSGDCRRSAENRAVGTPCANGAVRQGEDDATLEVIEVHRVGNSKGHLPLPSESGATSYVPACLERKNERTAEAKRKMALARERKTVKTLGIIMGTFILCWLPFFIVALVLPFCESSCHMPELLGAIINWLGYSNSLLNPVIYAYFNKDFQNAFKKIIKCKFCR

[3] = target: 5-hydroxytryptamine receptor 2A (Homo sapiens, UniProt P28223); experiment: Compound was evaluated for binding affinity against 5-hydroxytryptamine 2A receptor using radioligand binding assay
[4] = target: Serotonin 3 (5-HT3) receptor; experiment: Compound was evaluated for binding affinity against 5-hydroxytryptamine 3 receptor using radioligand binding assay; assay type: protein-complex assay
[5] = target: T2, 5-hydroxytryptamine receptor 2C (Homo sapiens, UniProt P28335); experiment: Compound was evaluated for binding affinity against 5-hydroxytryptamine 2C receptor using radioligand binding assay
T2 sequence (P28335 whole entry): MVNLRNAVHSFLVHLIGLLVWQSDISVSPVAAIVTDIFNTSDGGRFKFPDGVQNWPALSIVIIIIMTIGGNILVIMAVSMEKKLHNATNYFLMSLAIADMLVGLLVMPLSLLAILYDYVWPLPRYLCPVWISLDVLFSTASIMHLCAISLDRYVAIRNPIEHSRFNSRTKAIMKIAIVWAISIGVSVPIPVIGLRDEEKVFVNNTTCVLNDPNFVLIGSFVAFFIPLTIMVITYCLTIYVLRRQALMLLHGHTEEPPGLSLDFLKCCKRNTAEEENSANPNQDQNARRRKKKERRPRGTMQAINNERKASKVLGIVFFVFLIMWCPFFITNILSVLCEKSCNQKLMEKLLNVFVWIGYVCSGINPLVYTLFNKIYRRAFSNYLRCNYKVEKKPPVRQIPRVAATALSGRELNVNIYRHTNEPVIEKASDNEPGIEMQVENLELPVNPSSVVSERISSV

[6] = Compound was tested for its half-life period at an intravenous dose of 3 ug/kg; assay type: ADME, organism-based, Sus scrofa; conditions: pig, in vivo, 0.003 mg/kg
[7] = target: T3, Type-2 angiotensin II receptor (Homo sapiens, UniProt P50052); experiment: Compound was evaluated for binding affinity against Angiotensin II receptor, type 2 using radioligand binding assay
T3 sequence (P50052 whole entry): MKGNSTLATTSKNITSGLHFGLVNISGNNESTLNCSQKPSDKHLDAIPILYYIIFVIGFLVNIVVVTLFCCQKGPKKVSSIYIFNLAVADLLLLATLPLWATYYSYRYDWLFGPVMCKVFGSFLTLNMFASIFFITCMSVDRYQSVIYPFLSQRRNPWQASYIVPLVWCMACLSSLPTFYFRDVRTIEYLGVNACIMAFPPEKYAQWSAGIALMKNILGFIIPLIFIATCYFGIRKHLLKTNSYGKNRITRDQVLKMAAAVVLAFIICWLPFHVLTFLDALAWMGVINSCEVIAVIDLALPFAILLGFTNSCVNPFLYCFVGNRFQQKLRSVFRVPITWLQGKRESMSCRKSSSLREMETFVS

[8] = target: T4, Alpha-1B adrenergic receptor (Homo sapiens, UniProt P35368); experiment: Compound was evaluated for binding affinity against Alpha-1B adrenergic receptor using radioligand binding assay
T4 sequence (P35368 whole entry): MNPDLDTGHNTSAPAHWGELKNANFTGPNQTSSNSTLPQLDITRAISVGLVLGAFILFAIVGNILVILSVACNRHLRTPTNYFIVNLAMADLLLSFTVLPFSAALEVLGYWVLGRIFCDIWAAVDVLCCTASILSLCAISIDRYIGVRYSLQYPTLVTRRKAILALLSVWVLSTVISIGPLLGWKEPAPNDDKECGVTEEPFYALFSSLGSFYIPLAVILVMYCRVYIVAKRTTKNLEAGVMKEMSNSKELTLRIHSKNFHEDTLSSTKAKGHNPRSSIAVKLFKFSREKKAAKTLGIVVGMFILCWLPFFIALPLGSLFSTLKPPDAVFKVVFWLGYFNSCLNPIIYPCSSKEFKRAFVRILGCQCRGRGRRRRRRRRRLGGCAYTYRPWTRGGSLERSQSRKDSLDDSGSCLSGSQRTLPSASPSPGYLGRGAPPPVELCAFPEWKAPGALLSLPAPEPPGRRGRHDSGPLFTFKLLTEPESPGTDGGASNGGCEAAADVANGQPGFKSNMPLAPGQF

[9] = target: T5, Alpha-1A adrenergic receptor (Homo sapiens, UniProt P35348); experiment: Compound was evaluated for binding affinity against Alpha-1C adrenergic receptor using radioligand binding assay
T5 sequence (P35348 whole entry): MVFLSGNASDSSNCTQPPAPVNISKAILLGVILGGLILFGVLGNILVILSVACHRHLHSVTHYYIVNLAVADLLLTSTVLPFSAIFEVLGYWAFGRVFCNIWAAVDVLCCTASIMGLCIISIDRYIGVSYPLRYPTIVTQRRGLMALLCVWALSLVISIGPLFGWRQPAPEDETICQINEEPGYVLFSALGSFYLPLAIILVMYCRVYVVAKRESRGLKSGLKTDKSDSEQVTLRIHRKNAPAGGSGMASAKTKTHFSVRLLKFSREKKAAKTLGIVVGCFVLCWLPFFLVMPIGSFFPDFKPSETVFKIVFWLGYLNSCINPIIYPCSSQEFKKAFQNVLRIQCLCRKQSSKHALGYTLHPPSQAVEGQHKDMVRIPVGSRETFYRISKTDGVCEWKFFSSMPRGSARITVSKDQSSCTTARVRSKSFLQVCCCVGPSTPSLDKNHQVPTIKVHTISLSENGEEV

[10] = target: T6, Alpha-2B adrenergic receptor (Homo sapiens, UniProt P18089); experiment: Compound was evaluated for binding affinity against Alpha-2B adrenergic receptor using radioligand binding assay
T6 sequence (P18089 whole entry): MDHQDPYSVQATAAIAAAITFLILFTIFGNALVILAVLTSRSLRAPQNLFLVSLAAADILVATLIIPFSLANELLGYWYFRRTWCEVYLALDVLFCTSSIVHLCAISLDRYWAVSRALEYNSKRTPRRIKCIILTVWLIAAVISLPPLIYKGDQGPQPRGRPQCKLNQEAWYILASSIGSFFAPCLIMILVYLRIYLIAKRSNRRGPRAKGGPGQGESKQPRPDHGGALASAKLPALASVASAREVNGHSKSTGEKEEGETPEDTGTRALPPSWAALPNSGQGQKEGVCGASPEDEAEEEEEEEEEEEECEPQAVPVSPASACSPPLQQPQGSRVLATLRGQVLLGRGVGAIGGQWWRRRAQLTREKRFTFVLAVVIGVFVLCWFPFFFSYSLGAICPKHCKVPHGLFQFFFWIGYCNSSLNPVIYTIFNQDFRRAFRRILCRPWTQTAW

[11] = target: D(2) dopamine receptor (Homo sapiens, UniProt P14416); experiment: Compound was evaluated for binding affinity against Dopamine D2 receptor using radioligand binding assay
[12] = target: D(1A) dopamine receptor (Homo sapiens, UniProt P21728); experiment: Compound was evaluated for binding affinity against Dopamine D1 receptor using radioligand binding assay
[13] = target: Muscarinic acetylcholine receptor M3 (Homo sapiens, UniProt P20309); experiment: Compound was evaluated for binding affinity against Muscarinic M3 receptor using radioligand binding assay
[14] = target: T7, Muscarinic acetylcholine receptor M2 (Homo sapiens, UniProt P08172); experiment: Compound was evaluated for binding affinity against Muscarinic M2 receptor using radioligand binding assay
T7 sequence (P08172 whole entry): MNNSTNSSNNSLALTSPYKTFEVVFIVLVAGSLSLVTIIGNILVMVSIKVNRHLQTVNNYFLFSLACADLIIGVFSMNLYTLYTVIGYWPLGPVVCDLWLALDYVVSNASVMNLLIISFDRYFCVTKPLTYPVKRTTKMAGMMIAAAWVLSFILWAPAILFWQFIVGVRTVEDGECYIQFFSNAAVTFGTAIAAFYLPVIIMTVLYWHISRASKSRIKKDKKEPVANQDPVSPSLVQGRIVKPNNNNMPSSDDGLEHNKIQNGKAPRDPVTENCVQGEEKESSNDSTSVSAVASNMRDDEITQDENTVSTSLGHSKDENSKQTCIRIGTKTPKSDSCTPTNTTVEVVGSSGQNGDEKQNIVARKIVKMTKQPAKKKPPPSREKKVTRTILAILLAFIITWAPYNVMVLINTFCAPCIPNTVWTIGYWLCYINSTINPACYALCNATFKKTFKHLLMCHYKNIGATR

[15] = target: T8, Muscarinic acetylcholine receptor M1 (Homo sapiens, UniProt P11229); experiment: Compound was evaluated for binding affinity against Muscarinic M1 receptor using radioligand binding assay
T8 sequence (P11229 whole entry): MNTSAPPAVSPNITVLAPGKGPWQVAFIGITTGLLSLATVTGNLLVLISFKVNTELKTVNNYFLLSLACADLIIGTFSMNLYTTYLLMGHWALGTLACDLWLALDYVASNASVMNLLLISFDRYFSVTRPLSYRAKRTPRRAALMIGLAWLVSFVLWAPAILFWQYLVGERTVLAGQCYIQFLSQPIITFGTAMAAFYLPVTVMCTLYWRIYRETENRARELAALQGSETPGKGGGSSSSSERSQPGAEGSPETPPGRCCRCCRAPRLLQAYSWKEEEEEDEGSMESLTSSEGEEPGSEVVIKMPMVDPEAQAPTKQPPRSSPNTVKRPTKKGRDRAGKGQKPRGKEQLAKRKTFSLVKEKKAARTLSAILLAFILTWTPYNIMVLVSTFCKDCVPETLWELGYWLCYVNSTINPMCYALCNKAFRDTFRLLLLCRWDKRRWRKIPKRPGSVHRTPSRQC

[16] = test system: Sus scrofa; experiment: Antagonism of 5-HT-induced tachycardia in anesthetized, vagotomized Yucatan micropigs at 0.03-10 ug/kg dose administered intravenously; assay type: functional; conditions: iv, read-out: ID50 (the source's name)
[17] = test system: Sus scrofa; experiment: Antagonism of 5-HT-induced tachycardia in anesthetized, vagotomized Yucatan micropigs at 0.1-30 ug/kg dose administered intraduodenally; assay type: functional; conditions: intraduodenal, read-out: ID50 (the source's name)
[18] = target: T9, Type-1 angiotensin II receptor (Homo sapiens, UniProt P30556); experiment: Compound was evaluated for binding affinity against Angiotensin II receptor, type 1 using radioligand binding assay
T9 sequence (P30556 whole entry): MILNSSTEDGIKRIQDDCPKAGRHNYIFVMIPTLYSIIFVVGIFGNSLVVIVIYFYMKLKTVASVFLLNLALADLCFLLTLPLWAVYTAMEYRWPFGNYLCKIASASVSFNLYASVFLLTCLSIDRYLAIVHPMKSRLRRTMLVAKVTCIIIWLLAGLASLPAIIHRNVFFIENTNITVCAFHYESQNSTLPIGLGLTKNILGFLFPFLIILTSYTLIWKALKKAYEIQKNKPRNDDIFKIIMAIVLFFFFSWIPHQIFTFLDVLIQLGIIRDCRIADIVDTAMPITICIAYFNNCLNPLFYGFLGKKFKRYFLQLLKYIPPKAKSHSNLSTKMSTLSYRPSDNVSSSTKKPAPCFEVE

[19] = target: 5-hydroxytryptamine receptor 4 (Cavia porcellus, UniProt O70528); experiment: Compound was evaluated for binding affinity against 5-hydroxytryptamine 4 receptor using radioligand binding assay using [3H]GR as radioligand
[20] = target: T10, Alpha-2A adrenergic receptor (Homo sapiens, UniProt P08913); experiment: Compound was evaluated for binding affinity against Alpha-2A adrenergic receptor using radioligand binding assay
T10 sequence (P08913 whole entry): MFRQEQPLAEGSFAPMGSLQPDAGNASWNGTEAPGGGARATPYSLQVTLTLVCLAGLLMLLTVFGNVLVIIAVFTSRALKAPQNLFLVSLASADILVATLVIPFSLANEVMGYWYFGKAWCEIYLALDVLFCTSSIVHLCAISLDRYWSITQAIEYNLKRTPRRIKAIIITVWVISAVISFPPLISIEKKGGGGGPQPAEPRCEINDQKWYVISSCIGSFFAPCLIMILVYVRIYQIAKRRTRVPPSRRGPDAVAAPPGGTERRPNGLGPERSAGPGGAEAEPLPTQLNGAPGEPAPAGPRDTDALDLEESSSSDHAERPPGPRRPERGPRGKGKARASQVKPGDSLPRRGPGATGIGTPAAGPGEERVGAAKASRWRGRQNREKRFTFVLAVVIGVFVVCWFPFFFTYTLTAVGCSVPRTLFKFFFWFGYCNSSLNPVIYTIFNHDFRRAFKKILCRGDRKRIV

5-hydroxytryptamine receptor 4 (Rattus norvegicus), sequence (Q62758 whole entry): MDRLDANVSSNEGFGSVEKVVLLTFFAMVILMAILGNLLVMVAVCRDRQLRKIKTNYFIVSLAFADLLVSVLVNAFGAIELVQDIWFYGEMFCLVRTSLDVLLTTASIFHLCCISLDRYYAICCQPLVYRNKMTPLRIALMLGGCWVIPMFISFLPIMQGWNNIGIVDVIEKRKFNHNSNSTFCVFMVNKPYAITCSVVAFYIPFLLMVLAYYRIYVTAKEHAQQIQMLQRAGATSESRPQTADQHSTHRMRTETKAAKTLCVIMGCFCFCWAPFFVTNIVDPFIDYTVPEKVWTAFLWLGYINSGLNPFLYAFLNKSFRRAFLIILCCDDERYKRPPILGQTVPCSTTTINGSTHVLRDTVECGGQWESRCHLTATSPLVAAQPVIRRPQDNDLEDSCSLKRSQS
Muscarinic acetylcholine receptor M3, sequence (P20309 whole entry): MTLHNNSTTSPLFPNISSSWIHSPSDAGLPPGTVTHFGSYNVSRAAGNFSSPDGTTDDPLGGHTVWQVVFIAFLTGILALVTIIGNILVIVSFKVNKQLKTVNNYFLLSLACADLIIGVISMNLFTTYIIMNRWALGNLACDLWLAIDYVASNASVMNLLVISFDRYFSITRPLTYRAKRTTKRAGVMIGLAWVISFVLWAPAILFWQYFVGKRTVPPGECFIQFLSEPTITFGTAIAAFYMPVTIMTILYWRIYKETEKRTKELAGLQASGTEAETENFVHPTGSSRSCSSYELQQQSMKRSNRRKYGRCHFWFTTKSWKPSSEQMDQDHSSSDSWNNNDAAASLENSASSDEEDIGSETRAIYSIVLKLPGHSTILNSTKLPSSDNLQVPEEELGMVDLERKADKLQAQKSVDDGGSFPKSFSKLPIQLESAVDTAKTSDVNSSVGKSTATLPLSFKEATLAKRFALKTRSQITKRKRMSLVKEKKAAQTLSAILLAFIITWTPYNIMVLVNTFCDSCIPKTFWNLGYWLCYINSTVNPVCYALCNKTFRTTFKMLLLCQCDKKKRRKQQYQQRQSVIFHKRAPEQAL
D(2) dopamine receptor, sequence (P14416 whole entry): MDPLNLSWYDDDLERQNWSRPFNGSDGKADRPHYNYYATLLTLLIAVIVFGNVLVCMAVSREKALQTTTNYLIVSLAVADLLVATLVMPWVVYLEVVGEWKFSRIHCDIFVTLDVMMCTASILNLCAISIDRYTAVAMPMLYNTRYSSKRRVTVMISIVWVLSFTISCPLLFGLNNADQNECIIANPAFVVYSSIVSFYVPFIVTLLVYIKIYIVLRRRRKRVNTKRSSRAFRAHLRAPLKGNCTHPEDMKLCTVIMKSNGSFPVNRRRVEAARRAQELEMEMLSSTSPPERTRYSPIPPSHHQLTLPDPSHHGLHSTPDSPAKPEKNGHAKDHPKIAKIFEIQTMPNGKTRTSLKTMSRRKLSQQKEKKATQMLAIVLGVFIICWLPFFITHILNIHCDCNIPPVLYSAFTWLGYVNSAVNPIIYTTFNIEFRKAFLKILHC
5-hydroxytryptamine receptor 4, sequence (O70528 whole entry): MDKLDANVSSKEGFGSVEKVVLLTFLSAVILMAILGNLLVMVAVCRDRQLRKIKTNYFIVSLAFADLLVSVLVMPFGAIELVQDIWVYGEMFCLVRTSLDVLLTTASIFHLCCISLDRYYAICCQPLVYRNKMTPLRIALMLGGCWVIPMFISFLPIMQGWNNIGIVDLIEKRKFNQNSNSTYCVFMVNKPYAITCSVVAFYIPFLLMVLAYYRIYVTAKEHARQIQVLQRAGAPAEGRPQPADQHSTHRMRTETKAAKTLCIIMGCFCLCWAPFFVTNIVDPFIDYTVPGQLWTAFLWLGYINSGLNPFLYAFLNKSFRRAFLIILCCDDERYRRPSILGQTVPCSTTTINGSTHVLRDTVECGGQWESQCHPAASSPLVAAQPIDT
D(1A) dopamine receptor, sequence (P21728 whole entry): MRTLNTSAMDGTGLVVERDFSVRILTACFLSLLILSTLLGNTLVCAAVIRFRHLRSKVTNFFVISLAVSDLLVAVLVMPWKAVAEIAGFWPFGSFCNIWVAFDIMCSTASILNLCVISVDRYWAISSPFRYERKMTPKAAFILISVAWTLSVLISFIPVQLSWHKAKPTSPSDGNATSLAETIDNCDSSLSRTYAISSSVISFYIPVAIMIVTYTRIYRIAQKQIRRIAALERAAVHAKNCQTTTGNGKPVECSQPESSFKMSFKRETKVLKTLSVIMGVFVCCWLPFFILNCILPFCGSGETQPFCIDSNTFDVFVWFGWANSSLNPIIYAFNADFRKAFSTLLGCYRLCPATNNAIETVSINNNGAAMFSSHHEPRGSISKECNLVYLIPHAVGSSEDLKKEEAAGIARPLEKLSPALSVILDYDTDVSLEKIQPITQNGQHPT
5-hydroxytryptamine receptor 2A, sequence (P28223 whole entry): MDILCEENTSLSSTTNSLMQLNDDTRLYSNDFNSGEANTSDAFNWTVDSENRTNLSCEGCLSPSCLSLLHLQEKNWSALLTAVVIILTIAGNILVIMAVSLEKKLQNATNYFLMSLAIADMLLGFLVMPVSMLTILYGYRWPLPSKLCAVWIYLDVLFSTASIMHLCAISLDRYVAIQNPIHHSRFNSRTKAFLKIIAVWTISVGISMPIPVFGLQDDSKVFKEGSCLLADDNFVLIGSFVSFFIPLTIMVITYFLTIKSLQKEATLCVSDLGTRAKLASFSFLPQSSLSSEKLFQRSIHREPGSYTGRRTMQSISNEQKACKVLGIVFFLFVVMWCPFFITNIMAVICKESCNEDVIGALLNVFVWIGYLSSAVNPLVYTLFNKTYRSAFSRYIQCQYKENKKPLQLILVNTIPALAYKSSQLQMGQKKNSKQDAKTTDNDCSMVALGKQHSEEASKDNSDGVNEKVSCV

SMILES: Nc1c(Cl)cc(C(=O)CCC2CCN(CCCc3ccccc3)CC2)c2c1OCCO2
- pKb [1]: 9.6

SMILES: COc1ccc(CCCN2CCC(CCC(=O)c3cc(Cl)c(N)c4c3OCCO4)CC2)cc1
- pKb [1]: 10.6

SMILES: Cn1cc(C(=O)OCC2CCN(CCNS(C)(=O)=O)CC2)c2ccccc21
- pKb [1]: 9

SMILES: COc1ccc(CCCN2CCC(CCC(=O)c3cc(Cl)c(N)c4c3OCCO4)CC2)cc1OC
- Ki [2]: 1 µM
- Ki [3]: 0.501 µM
- Log Ki [4]: -6.3
- Ki [5]: 1.58 µM
- half-life [6]: > 6 h
- Ki [7]: > 10 µM
- Ki [8]: 0.501 µM
- Ki [9]: 0.316 µM
- Ki [10]: 2.51 µM
- Ki [11]: 0.316 µM
- Ki [12]: > 10 µM
- Ki [13]: 2 µM
- Ki [14]: 1.26 µM
- Ki [15]: 1.58 µM
- ED50 [16]: 0.55 µg/kg
- ED50 [17]: 1.52 µg/kg
- Ki [18]: > 10 µM
- Ki [19]: 0.0001 µM
- Ki [20]: 0.1 µM
